Laboratory results as given in patent publication US20070249673A1, “Method for administering tolperisone” (priority 2006, published 2007).

Experiment: Pharmacokinetic profile of tolperisone after single and multi-dosing (150 mg regimen over 7 days) in healthy subjects under fasted and fed conditions
Conditions: for AUC(0-t) / AUC(inf) / Cmax / t½ / λz / AUC(0-6): mean ± SD; for Tmax: median
[1] = Day 1 - 0800 Dose, Fasted, Females
[2] = Day 1 - 0800 Dose, Fasted, Males
[3] = Day 1 - 0800 Dose, Fasted, both sexes
[4] = Day 1 - 0800 Dose, Fed, Females
[5] = Day 1 - 0800 Dose, Fed, both sexes
[6] = Day 1, fed vs fasted, both sexes
[7] = Day 2 - 2200 Dose, Fasted, Females
[8] = Day 2 - 2200 Dose, Fasted, Males
[9] = Day 2 - 2200 Dose, Fasted, both sexes
[10] = Day 2 - 2200 Dose, Fed, Females
[11] = Day 2 - 2200 Dose, Fed, both sexes
[12] = Day 7 - 0800 Dose, Fasted, Females
[13] = Day 7 - 0800 Dose, Fasted, Males
[14] = Day 7 - 0800 Dose, Fasted, both sexes
[15] = Day 7 - 0800 Dose, Fed, Females
[16] = Day 7 - 0800 Dose, Fed, both sexes
[17] = Day 7 - 2200 Dose, Fasted, Females
[18] = Day 7 - 2200 Dose, Fasted, Males
[19] = Day 7 - 2200 Dose, Fasted, both sexes
[20] = Day 7 - 2200 Dose, Fed, Females
[21] = Day 7 - 2200 Dose, Fed, both sexes

Method: Dosing Regimen: Subjects in each cohort received tolperisone according to the following regimen.
Blood samples for the measurement of the plasma concentrations of tolperisone and metabolites M1 (4-hydroxymethyltolperisone) and M4 (4-carboxy-tolperisone) were collected at the times shown in Table 8.
Bioanalytical: Plasma concentrations of tolperisone and metabolites M1 and M4 were measured using a validated LC/MS/MS assay by Pharm-analyt Laboratory, Baden Austria. The limits of quantitation (LOQ) for tolperisone, Mi, and M4 in plasma were 0.2 ng/ML, and 0.01 μg/mL, respectively.
Pharmacokinetic Analyses: Pharmacokinetic parameters for tolperisone, M1, and M4 were calculated using non-compartmental analysis. Only plasma concentrations greater than or equal to the LOQ for the respective assay were used in the pharmacokinetic analyses. Actual blood sampling times were used in all pharmacokinetic analyses. […] All pharmacokinetic calculations were done using SAS® for Windows® Version 9.1.3.
The maximum plasma concentration (Cmax) and time to Cmax (Tmax) were taken directly from the data. The elimination rate constant, λz, was calculated as the negative of the slope of the terminal log-linear segment of the plasma concentration-time curve. The range of data to be used for each subject and treatment was determined by visual inspection of a semi-logarithmic plot of concentration versus time. Elimination half-life (t½) was calculated according to the following equation: [formula] Area under the curve to the final sample with a concentration greater than or equal to the LOQ [(AUC(0-t)] was calculated using the linear trapezoidal method and extrapolated to infinity [AUC(inf)] using: [formula] where Ctf is the final concentration≧LOQ.
The maximum plasma concentration (Cmax) and time to Cmax (Tmax) were taken directly from the data.
The maximum plasma concentration (Cmax) and time to Cmax (Tmax) were taken directly from the data. The elimination rate constant, λz, and half-life, t½, were calculated as described for the 0800 dose on Day 1 (above). Areas under the curve to the final sample with a concentration greater than or equal to the LOQ [(AUC(O-t)] and over the 6-hour dosing interval [AUC(0-6)] were calculated using the linear trapezoidal method.

In the case of `CC(CN1CCCCC1)C(=O)c1ccc(C(=O)O)cc1` (racemic) [Metabolite M4, 4-carboxy-tolperisone], the “AUC(0-t)” value [1] was 2.79 ± 0.37 (3) h · μg/mL, the “AUC(inf)” value [1] was 2.86 ± 0.40 (3) h · μg/mL and the Cmax [1] was 1.31 ± 0.05 (3) μg/mL. For the same compound, the t½ [1] was 0.99 ± 0.04 (3) h, the λz [1] was 0.6981 ± 0.0253 (3) h^−1 and the Tmax [1] was 1.00 (3) h. The “AUC(0-t)” value [2] was 2.26 ± 0.42 (7) h · μg/mL, the “AUC(inf)” value [2] was 2.34 ± 0.44 (7) h · μg/mL and the Cmax [2] was 1.31 ± 0.44 (7) μg/mL. For the same compound, the t½ [2] was 1.10 ± 0.08 (7) h, the λz [2] was 0.6321 ± 0.0488 (7) h^−1 and the Tmax [2] was 0.75 (7) h. The “AUC(0-t)” value [3] was 2.42 ± 0.46 (10) h · μg/mL, the “AUC(inf)” value [3] was 2.49 ± 0.48 (10) h · μg/mL and the Cmax [3] was 1.31 ± 0.36 (10) μg/mL. For the same compound, the t½ [3] was 1.07 ± 0.088 (10) h, the λz [3] was 0.6519 ± 0.0524 (10) h^−1 and the Tmax [3] was 0.88 (10) h. The “AUC(0-t)” value [4] was 2.74 ± 0.74 (4) h · μg/mL, the “AUC(inf)” value [4] was 2.94 ± 0.84 (4) h · μg/mL and the Cmax [4] was 1.02 ± 0.18 (4) μg/mL. For the same compound, the t½ [4] was 1.16 ± 0.21 (4) h, the λz [4] was 0.6189 ± 0.1389 (4) h^−1 and the Tmax [4] was 2.00 (4) h. The “AUC(0-t)” value (Day 1 - 0800 Dose, Fed, Males) was 2.32 ± 0.70 (6) h · μg/mL, the “AUC(inf)” value (Day 1 - 0800 Dose, Fed, Males) was 2.43 ± 0.76 (6) h · μg/mL and the Cmax (Day 1 - 0800 Dose, Fed, Males) was 1.27 ± 0.45 (6) μg/mL. The t½ (Day 1 - 0800 Dose, Fed, Males) was 1.17 ± 0.19 (6) h, the λz (Day 1 - 0800 Dose, Fed, Males) was 0.6047 ± 0.0938 (6) h^−1 and the Tmax (Day 1 - 0800 Dose, Fed, Males) was 0.88 (6) h. For the same compound, the “AUC(0-t)” value [5] was 2.49 ± 0.70 (10) h · μg/mL, the “AUC(inf)” value [5] was 2.64 ± 0.79 (10) h · μg/mL and the Cmax [5] was 1.17 ± 0.38 (10) μg/mL. For the same compound, the t½ [5] was 1.16 ± 0.19 (10) h, the λz [5] was 0.6104 ± 0.1067 (10) h^−1 and the Tmax [5] was 1.50 (10) h. The “decrease in the mean value for Cmax on administration with food” value [6] was 11%, the “increase in the mean value for AUC(inf) on administration with food” value [6] was 6% and the Cmax [7] was 0.96 ± 0.48 (3) μg/mL. For the same compound, the Tmax [7] was 1.00 (3) h, the Cmax [8] was 0.53 ± 0.32 (7) μg/mL and the Tmax [8] was 1.50 (7) h. The Cmax [9] was 0.66 ± 0.40 (10) μg/mL, the Tmax [9] was 1.25 (10) h and the Cmax [10] was 0.82 ± 0.41 (4) μg/mL. For the same compound, the Tmax [10] was 1.25 (4) h, the Cmax (Day 2 - 2200 Dose, Fed, Males) was 0.75 ± 0.42 (6) μg/mL and the Tmax (Day 2 - 2200 Dose, Fed, Males) was 1.00 (6) h. For the same compound, the Cmax [11] was 0.78 ± 0.40 (10) μg/mL, the Tmax [11] was 1.00 (10) h and the “mean AUC(0-6) under fed conditions lower than fasted” value (Day 7, 0800 dose, both sexes) was 3%. The “mean Cmax under fed conditions lower than fasted” value (Day 7, 0800 dose, both sexes) was 28%, the “AUC(0-6)” value [12] was 2.86 ± 0.42 (3) h · μg/mL and the Cmax [12] was 1.57 ± 0.25 (3) μg/mL. The t½ [12] was 1.12 ± 0.08 (3) h, the λz [12] was 0.6226 ± 0.0416 (3) h^−1 and the Tmax [12] was 0.75 (3) h. For the same compound, the “AUC(0-6)” value [13] was 2.06 ± 0.39 (7) h · μg/mL, the Cmax [13] was 1.04 ± 0.32 (7) μg/mL and the t½ [13] was 1.20 ± 0.07 (7) h. The λz [13] was 0.5809 ± 0.0358 (7) h^−1, the Tmax [13] was 0.75 (7) h and the “AUC(0-6)” value [14] was 2.30 ± 0.54 (10) h · μg/mL. For the same compound, the Cmax [14] was 1.19 ± 0.38 (10) μg/mL, the t½ [14] was 1.17 ± 0.081 (10) h and the λz [14] was 0.5934 ± 0.0406 (10) h^−1. For the same compound, the Tmax [14] was 0.75 (10) h, the “AUC(0-6)” value [15] was 2.31 ± 0.39 (4) h · μg/mL and the Cmax [15] was 0.95 ± 0.45 (4) μg/mL. The t½ [15] was 1.10 ± 0.20 (3) h, the λz [15] was 0.6452 ± 0.1199 (3) h^−1 and the Tmax [15] was 2.00 (4) h. The “AUC(0-6)” value (Day 7 - 0800 Dose, Fed, Males) was 2.17 ± 0.57 (6) h · μg/mL, the Cmax (Day 7 - 0800 Dose, Fed, Males) was 0.80 ± 0.24 (6) μg/mL and the t½ (Day 7 - 0800 Dose, Fed, Males) was 1.21 ± 0.30 (6) h. For the same compound, the λz (Day 7 - 0800 Dose, Fed, Males) was 0.5978 ± 0.1116 (6) h^−1, the Tmax (Day 7 - 0800 Dose, Fed, Males) was 1.75 (6) h and the “AUC(0-6)” value [16] was 2.23 ± 0.49 (10) h · μg/mL. The Cmax [16] was 0.86 ± 0.32 (10) μg/mL, the t½ [16] was 1.17 ± 0.26 (09) h and the λz [16] was 0.6136 ± 0.1092 (09) h^−1. The Tmax [16] was 2.00 (10) h, the Cmax [17] was 1.40 ± 0.21 (3) μg/mL and the Tmax [17] was 1.50 (3) h. The Cmax [18] was 0.844 ± 0.243 (7) μg/mL, the Tmax [18] was 1.03 (7) h and the Cmax [19] was 1.01 ± 0.35 (10) μg/mL. For the same compound, the Tmax [19] was 1.27 (10) h, the Cmax [20] was 0.99 ± 0.25 (4) μg/mL and the Tmax [20] was 1.25 (4) h. For the same compound, the Cmax (Day 7 - 2200 Dose, Fed, Males) was 0.94 ± 0.25 (6) μg/mL, the Tmax (Day 7 - 2200 Dose, Fed, Males) was 1.04 (6) h and the Cmax [21] was 0.96 ± 0.24 (10) μg/mL. For the same compound, the Tmax [21] was 1.04 (10) h, the “accumulation (increase in Cmax over the seven days of dosing)” value (seven days of dosing, up to 150 mg three times daily) was “little or no accumulation” and the mean elimination half-life (summary, not dependent on sex, food or duration of dosing) was ~1.1 h.
